Data taken from patent US8791155B2, “Chroman derivatives” (Edison Pharmaceuticals, Inc., priority 2003, dated 2014).

Tests used:
[1] = tested on: release of the leukotriene LTB4 from MPRO cell line; test: LTB4 assay (competitive ELISA); assay type: cell-based; conditions: Mus musculus; 1 μM calcium ionophore A23187, 1 hour; read-out: EC50, inhibition of LTB4 production
From the text: This procedure was used for measuring the release of the leukotriene LTB4 from a neutrophil cell line using a competitive ELISA technique.
• MPRO cell line (ATCC, Catalog #CRL-11422) • Calciumionophore (A23187) (Sigma, Catalog #C7522) • Nordihydroguaiaretic acid (NDGA) (BioMol, Catalog #E1101-0001) • Retinoic Acid (all-trans) (ATRA) (Sigma, Catalog #95152) • Sterile, tissue-culture treated 96-well plates (Corning, Catalog #3614) Materials for LTB4 ELISA • Precoated (Mouse Anti-Rabbit IgG) EIA 96 Well Strip Plates (Cayman, Catalog #400004) • Leukotriene B4 AChE Tracer (Cayman Catalog #420110) • Leukotriene B4 EIA Antiserum (Cayman Catalog #420112) • Ellman's Reagent (Cayman Catalog #400050) • EIA Buffer Concentrate (10×) (Cayman Catalog #400060) • Wash Buffer Concentrate (400×) (Cayman Catalog #400062) • Plastic plate covers (Cayman Catalog #400012) Procedure
A mouse promyelocytic cell line (MPRO) was used in this assay. These cells are committed immature neutrophils that can be differentiated into mature neutrophils by treatment with 10 μM all-trans retinoic acid for 72 hours
Following 72 hours of differentiation, cells were stimulated with 1 μM of a calcium ionophore (A23187) in the presence or absence of test compound or vehicle for 1 hour at 370 C. After this time, supernatant was removed from the cells and the LTB4 levels were determined following manufacturer's instructions, using a Leukotriene B4 EIA kit from Cayman (Cat #520111)
The negative controls were media samples from differentiated but unstimulated cells.
The compounds were screened at 5 concentrations in quadruplicate starting at 10 μM

[2] = target: T1, human recombinant 5-lipoxygenase (Homo sapiens, UniProt P09917); test: 5-Lipoxygenase enzyme assay; assay type: biochemical; conditions: 70 μM arachidonic acid, pH 7.4, 10 minute incubation; read-out: IC50, inhibition of 5-Lipoxygenase
T1 construct: purchased Cayman 60402
T1 sequence (P09917 1-674): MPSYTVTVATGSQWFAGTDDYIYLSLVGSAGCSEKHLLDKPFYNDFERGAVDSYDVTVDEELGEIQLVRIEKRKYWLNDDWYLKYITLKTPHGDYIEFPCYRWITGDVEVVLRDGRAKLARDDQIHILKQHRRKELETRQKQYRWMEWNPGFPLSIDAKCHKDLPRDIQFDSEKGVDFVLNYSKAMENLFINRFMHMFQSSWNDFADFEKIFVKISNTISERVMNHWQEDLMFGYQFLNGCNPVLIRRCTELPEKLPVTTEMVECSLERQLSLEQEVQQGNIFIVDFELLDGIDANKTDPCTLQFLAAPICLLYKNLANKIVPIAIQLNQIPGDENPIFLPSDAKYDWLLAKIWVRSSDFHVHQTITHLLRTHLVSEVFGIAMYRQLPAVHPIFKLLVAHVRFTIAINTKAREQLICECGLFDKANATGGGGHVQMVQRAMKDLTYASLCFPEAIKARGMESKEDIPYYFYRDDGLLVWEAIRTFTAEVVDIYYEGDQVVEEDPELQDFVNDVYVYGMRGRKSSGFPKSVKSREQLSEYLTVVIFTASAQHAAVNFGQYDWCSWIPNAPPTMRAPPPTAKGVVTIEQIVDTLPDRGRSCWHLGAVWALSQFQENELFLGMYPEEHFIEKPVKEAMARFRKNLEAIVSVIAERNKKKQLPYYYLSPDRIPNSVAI
From the text: (§1) In vitro evaluation of the ability of a composition to inhibit the enzymes 5-lipoxygenase, 15-lipoxygenase, or 12/15 lipoxygenase as described in Walidge, N. B. et al Anal. Biochem., 231: 354-358 (1995) using a high throughput colorimetric method; as well as in vitro evaluation of inhibiting LTB4 is described in Examples.
This procedure was used for measuring the enzymatic activity of human recombinant 5-lipoxygenase using a colorimetric method based on the ferric oxidation of xylenol orange.
• 96 well flat bottom microfilter plates (VWR, Catalog #62402-933 9295) • Lipoxygenase screening assay buffer (Cayman, Catalog #760710) • Human recombinant 5-lipoxygenase (Cayman, Catalog #60402) • Arachidonic Acid (Sigma, Catalog #A3555) • Xylenol orange tetrasodium salt (Aldrich, Catalog #227854) • Iron (II) sulfate heptahydrate (Sigma, Catalog #F7002) • Sulfuric acid (95-98%) [18M]—Methanol Procedure
(§2) Human recombinant 5-lipoxygenase (Cayman Cat #60402) was used in this assay. The test compound and/or vehicle was added to 0.51-1 5-lipoxygenase in 50 mM Tris-HCl buffer, pH 7.4. The reaction was initiated by addition of 70 μM arachidonic acid in Tris-HCl buffer, pH 7.4, and terminated after a 10 minute incubation at room temperature by addition of FOX reagent (25 mM sulphuric acid, 100 μM xylenol orange, 100 μM iron (II) sulphate, methanol:water 9:1). The yellow color of acidified xylenol orange was converted to a blue color by the lipid hydroperoxide-mediated oxidation of Fe 2+ ions and the interaction of the resulting Fe 3+ ions with the dye. The complex was allowed to form during a 1 hour incubation at room temperature with shaking. Absorbance of the Fe 3+ complex was then measured at […] using a spectrophotometer.
(§3) Negative controls contained enzyme during the incubation step but substrate was not added until after the FOX reagent.
Compounds were screened at 5 concentrations in triplicate starting at 10 μM

[3] = target: T2, porcine leukocyte 12/15-lipoxygenase (Sus scrofa, UniProt P16469); test: 12/15-Lipoxygenase enzyme assay; assay type: biochemical; conditions: 70 μM arachidonic acid, pH 7.4, 10 minute incubation; read-out: IC50, inhibition of 12/15-Lipoxygenase
T2 construct: purchased Cayman 60300
T2 sequence (P16469 1-663): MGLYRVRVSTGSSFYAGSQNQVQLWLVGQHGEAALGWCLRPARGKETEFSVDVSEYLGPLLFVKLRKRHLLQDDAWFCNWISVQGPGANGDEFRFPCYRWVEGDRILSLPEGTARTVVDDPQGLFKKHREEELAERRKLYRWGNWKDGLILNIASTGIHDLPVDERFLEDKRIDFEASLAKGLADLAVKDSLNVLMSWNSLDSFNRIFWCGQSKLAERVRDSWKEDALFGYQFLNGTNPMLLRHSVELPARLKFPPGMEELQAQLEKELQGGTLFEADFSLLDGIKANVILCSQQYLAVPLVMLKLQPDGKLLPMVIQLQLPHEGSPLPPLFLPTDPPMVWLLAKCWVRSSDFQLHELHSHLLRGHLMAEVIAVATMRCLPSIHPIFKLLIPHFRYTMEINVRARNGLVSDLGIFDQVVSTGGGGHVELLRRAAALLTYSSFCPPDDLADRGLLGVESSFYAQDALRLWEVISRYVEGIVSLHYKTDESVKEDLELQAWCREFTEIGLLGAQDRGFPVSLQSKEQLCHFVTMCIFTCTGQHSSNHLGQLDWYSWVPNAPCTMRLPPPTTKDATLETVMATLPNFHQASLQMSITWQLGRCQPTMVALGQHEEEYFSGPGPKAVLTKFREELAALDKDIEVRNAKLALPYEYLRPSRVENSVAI
From the text: as §1
This procedure was used for measuring the enzymatic activity of porcine leukocyte 12/15-lipoxygenase using a colorimetric method based on the ferric oxidation of xylenol orange.
• 96 well flat bottom microfilter plates (VWR, Catalog #62402-933 9295) • Lipoxygenase screening assay buffer (Cayman, Catalog #760710) • Porcine leukocyte 12/15-lipoxygenase (Cayman, Catalog #60300) • Arachidonic Acid (Sigma, Catalog #A3555) • Xylenol orange tetrasodium salt (Aldrich, Catalog #227854) • Iron (II) sulfate heptahydrate (Sigma, Catalog #F7002) • Sulfuric acid (95-98%) [18M] • Methanol Procedure
as §2, with “Porcine Leukocyte 12/15-lipoxygenase” for “Human recombinant 5-lipoxygenase”, “#60300)” for “#60402)”, “Test” for “The test”, “1.3 U 12/15-lipoxygenase” for “0.51-1 5-lipoxygenase”
as §3
Compounds are screened at 5 concentrations in triplicate starting at 10 μM

Cc1cc(C2(C)CCc3c(C)c(O)c(C)c(C)c3O2)c(C)s1 (stereo not drawn) [2-(2,5-Dimethyl-thiophen-3-yl)-2,5,7,8-tetramethyl-chroman-6-ol]
< 1000 nM: EC50 [1] | IC50 [2] | IC50 [3]
